Data: publication PMC12136037, “Type II kinase inhibitors that target Parkinson’s disease–associated LRRK2” (Science Advances, 2025)
Like-named read-outs stand apart in the source and are kept apart here.

Columns and labels:
Experiment in all cases: DSF 100 kinase selectivity screen;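 also: compound tested at 20 µM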
Assay type in all cases: binding
[1] = target: T1, ~100 representative kinases (Homo sapiens, UniProt P51813); conditions: Protein BMX; average of three replicates
T1 construct: Recombinant protein kinase domains with a concentration of 2 μM
T1 sequence (P51813 1-675): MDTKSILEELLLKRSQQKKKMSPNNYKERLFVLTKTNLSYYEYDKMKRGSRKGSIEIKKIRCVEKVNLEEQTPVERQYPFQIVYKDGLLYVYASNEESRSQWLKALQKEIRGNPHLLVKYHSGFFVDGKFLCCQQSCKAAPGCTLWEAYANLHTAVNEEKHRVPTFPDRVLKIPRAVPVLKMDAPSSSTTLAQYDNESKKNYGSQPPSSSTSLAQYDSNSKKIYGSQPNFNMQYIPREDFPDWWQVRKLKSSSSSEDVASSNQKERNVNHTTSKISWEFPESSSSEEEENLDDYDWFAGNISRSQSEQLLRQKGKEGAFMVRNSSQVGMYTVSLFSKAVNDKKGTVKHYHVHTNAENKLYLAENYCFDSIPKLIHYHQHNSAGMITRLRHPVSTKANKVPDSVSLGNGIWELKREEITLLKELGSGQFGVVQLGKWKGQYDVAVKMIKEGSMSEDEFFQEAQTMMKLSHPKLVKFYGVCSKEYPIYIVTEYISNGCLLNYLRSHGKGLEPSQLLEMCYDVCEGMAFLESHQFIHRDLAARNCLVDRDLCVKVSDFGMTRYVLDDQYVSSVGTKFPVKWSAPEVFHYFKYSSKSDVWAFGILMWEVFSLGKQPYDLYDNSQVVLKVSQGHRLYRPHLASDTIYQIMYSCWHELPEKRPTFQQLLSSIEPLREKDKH
Protocol: (§1) Recombinant protein kinase domains with a concentration of 2 μM were mixed with a 20 μM compound solution in dimethyl sulfoxide (DMSO), 20 mM Hepes (pH 7.5), and 500 mM NaCl. SYPRO Orange (5000×, Invitrogen) was added as a fluorescence probe (1μl/ml). Subsequently, temperature-dependent protein unfolding profiles were measured using the QuantStudio 5 realtime PCR machine (Thermo Fisher Scientific, Waltham, MA, USA). […] The temperature was raised with a step rate of 3°C/min. […] Differences in melting temperature are given as ΔTm values in degrees Celsius. […]

[2] = target: T2, ~100 representative kinases (Homo sapiens, UniProt Q9UEW8); conditions: Protein STK39; DSF; average of three replicates
T2 construct: Recombinant protein kinase domains with a concentration of 2 μM
Protocol: as §1

[3] = target: T3, ~100 representative kinases (Homo sapiens, UniProt P49761); conditions: Protein CLK3; average of three replicates
T3 construct: Recombinant protein kinase domains with a concentration of 2 μM
T3 sequence (P49761 whole entry, the tested form may be a part): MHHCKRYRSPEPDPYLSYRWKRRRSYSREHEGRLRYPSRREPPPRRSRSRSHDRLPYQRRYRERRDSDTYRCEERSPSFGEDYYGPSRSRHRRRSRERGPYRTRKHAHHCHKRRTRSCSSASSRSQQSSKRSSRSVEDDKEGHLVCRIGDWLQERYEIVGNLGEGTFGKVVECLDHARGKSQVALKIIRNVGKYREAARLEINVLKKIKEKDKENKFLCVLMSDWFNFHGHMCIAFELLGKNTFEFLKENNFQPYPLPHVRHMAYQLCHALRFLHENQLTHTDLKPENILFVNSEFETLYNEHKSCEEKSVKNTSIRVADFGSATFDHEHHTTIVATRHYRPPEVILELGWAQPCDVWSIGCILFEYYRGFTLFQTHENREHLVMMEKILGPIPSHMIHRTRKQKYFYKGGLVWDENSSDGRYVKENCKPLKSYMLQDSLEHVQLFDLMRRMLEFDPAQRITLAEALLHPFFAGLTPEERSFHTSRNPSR
Protocol: as §1

[4] = target: T4, ~100 representative kinases (Homo sapiens, UniProt Q00536)
T4 construct: Recombinant protein kinase domains with a concentration of 2 μM
T4 sequence (Q00536 whole entry, the tested form may be a part): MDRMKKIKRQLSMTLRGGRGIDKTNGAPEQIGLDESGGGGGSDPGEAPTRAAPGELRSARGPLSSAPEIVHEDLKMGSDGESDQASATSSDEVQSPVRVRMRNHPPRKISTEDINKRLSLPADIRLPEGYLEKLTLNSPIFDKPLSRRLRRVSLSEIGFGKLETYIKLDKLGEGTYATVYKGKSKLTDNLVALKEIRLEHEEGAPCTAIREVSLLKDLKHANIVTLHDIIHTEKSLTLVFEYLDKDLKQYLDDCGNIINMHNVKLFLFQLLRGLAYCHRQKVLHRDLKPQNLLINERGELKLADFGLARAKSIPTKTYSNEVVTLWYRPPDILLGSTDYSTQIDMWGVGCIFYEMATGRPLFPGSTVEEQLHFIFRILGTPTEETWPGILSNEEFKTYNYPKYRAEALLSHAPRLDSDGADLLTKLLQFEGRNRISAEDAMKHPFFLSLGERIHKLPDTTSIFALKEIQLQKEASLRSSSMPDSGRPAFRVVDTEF
Protocol: as §1

[5] = target: T5, ~100 representative kinases (Homo sapiens, UniProt Q8TF76); conditions: protein GSG2; average of three replicates
T5 construct: Recombinant protein kinase domains with a concentration of 2 μM
T5 sequence (Q8TF76 1-798): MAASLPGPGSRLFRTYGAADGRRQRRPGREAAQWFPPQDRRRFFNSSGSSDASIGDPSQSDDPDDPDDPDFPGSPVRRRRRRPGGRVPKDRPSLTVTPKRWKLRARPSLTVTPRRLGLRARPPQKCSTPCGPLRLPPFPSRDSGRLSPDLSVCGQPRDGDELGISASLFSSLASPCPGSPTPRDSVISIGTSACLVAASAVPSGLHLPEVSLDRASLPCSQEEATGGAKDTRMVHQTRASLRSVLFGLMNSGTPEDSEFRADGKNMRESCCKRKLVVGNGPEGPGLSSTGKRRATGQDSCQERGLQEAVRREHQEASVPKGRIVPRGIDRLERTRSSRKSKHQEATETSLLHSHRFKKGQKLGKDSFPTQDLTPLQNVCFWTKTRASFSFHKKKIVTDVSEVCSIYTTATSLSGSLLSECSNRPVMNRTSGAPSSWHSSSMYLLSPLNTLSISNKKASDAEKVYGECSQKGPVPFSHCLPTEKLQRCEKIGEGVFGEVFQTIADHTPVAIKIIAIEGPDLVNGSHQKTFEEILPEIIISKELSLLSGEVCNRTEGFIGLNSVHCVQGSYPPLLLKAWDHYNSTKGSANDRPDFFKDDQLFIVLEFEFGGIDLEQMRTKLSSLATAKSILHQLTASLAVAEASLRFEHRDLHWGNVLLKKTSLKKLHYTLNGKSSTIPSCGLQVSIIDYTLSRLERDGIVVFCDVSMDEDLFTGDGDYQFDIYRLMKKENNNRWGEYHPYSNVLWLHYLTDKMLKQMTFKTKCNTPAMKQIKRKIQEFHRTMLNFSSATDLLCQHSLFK
Protocol: as §1

[6] = target: T6, ~100 representative kinases (Homo sapiens, UniProt P24941); conditions: Protein CDK2; average of three replicates
T6 construct: Recombinant protein kinase domains with a concentration of 2 μM
Protocol: as §1

[7] = target: T7, ~100 representative kinases (Homo sapiens, UniProt Q99986); conditions: Protein VRK1; DSF; average of three replicates
T7 construct: Recombinant protein kinase domains with a concentration of 2 μM
T7 sequence (Q99986 1-396): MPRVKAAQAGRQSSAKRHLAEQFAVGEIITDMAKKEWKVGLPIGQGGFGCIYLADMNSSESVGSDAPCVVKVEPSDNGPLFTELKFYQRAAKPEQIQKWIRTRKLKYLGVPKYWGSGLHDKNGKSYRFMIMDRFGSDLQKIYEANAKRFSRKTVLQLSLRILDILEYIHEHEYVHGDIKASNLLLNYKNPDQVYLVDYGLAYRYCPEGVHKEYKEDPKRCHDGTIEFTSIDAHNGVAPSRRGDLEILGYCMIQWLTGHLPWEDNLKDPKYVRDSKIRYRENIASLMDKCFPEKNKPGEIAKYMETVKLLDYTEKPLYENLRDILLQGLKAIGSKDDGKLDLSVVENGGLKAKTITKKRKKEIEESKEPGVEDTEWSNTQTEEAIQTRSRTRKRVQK
Protocol: as §1

[8] = protein PCTK1, average of three replicates

| Structure (SMILES) | dTm [1] [K] | dTm [2] [K] | dTm [3] [K] | dTm [4, 8] [K] | dTm [5] [K] | dTm [6] [K] | dTm [7] [K] | dTm [4] [K] |
| --- | --- | --- | --- | --- | --- | --- | --- | --- |
| Cc1cc(NC(=O)C2(C(=O)Nc3cccc(-c4c[nH]c5ncnc(N6CCOCC6)c45)c3)CC2)ccc1F [Compound 20] | 1.40 | 3.28 | 5.99 | 8.82 | -3.30 | 8.50 | 1.43 | – |
| CN[C@@H]1C[C@H]2O[C@@](C)([C@@H]1OC)n1c3ccccc3c3c4c(c5c6ccccc6n2c5c31)C(=O)NC4 [Staurosporine] | – | 9.01 | – | – | 8.53 | – | – | – |
| Cc1ccc(C(=O)Nc2ccc(CN3CCN(C)CC3)c(C(F)(F)F)c2)cc1C#Cc1cnc2[nH]ncc2c1 [GZD-824, reference compound] | – | 4.29 | 4.75 | 3.06 | 0.04 | 4.99 | 0.0366 | – |
| O=C(Nc1ccccc1)C1(C(=O)Nc2cccc(-c3c[nH]c4ncnc(N5CCOCC5)c34)c2)CC1 [Compound 12] | 0.86 | 2.09 | 2.26 | 5.02 | -0.45 | 3.53 | 0.69 | – |
| CNC(=O)c1cc(Oc2ccc(NC(=O)Nc3cc(C(C)(C)C)nn3-c3ccc4ncccc4c3)c(F)c2)ccn1 [Rebastinib, reference compound] | 7.16 | 1.13 | 8.68 | 13.62 | 0.28 | 9.06 | 0.52 | – |
| COc1cc2c(Oc3ccc(NC(=O)C4(C(=O)Nc5ccc(F)cc5)CC4)cc3F)ccnc2cc1OCCCN1CCOCC1 [Foretinib, reference compound] | 6.77 | 0.70 | 3.35 | – | 1.08 | 0.40 | 1.05 | 4.52 |
| Cc1ccc(NC(=O)C2(C(=O)Nc3cccc(-c4c[nH]c5ncnc(N6CCOCC6)c45)c3)CC2)cc1 [Compound 14] | 0.15 | 1.16 | 2.40 | 6.61 | -0.69 | 7.03 | 0.91 | – |
| Cc1ccc(C(=O)Nc2ccc(CN3CCN(C)CC3)c(C(F)(F)F)c2)cc1C#Cc1cnc2cccnn12 [Ponatinib, reference compound] | – | – | – | – | – | 4.72 | – | – |

The next lines start with results.

| dTm [1] [K] | dTm [2] [K] | dTm [3] [K] | dTm [4, 8] [K] | dTm [5] [K] | dTm [6] [K] | dTm [7] [K] | Structure (SMILES) | dTm [4] [K] |
| --- | --- | --- | --- | --- | --- | --- | --- | --- |
| -0.0422 | 0.28 | 1.84 | 0.61 | -0.09 | 1.40 | 0.12 | CCNc1nc(Nc2cc(F)c(C(=O)N3CCOCC3)cc2OC)ncc1C(F)(F)F [GNE-7915] | – |
| 1.67 | 3.92 | 4.17 | 4.90 | -2.85 | 5.91 | 0.81 | CC(C)(C)c1cccc(NC(=O)C2(C(=O)Nc3cccc(-c4c[nH]c5ncnc(N6CCOCC6)c45)c3)CC2)c1 [Compound 22] | – |
| 0.22 | 1.14 | 1.58 | 4.13 | -2.84 | 3.56 | 0.51 | O=C(Nc1cccc(-c2c[nH]c3ncnc(N4CCOCC4)c23)c1)C1(C(=O)Nc2ccc(F)cc2F)CC1 [Compound 23] | – |
| -1.76 | 1.08 | 3.34 | 5.50 | -3.39 | 2.43 | -1.18 | CC(=O)N1CCN(c2nc(Cl)nc3[nH]cc(-c4cccc(NC(=O)Nc5cc(C(C)(C)C)nn5-c5ccc(C)cc5)c4)c23)CC1 [Compound 31] | – |
| 0.52 | 0.00 | 2.41 | 0.18 | -3.53 | 4.12 | 1.05 | O=C(Nc1cc(F)cc(Br)c1)C1(C(=O)Nc2cccc(-c3c[nH]c4ncnc(N5CCOCC5)c34)c2)CC1 [Compound 27] | – |
